Counter-ions that a name gives are not always drawn. Like-named read-outs stand apart in the source and are kept apart here.
Experiments:
[1] = target: T1, rat cortical A1 receptors (Rattus norvegicus, UniProt P25099); experiment: displacement of [3H]-CHA from rat cortical A1 receptors; format: binding; conditions: [3H]-CHA; rat cortical A1 receptors; read-out: Rat Cortical Binding Constant Ki
T1 construct: rat cortical membranes were the receptor source; from tissue; host or cells: rat cerebral cortex (male Sprague Dawley) membranes
T1 sequence (P25099 1-326): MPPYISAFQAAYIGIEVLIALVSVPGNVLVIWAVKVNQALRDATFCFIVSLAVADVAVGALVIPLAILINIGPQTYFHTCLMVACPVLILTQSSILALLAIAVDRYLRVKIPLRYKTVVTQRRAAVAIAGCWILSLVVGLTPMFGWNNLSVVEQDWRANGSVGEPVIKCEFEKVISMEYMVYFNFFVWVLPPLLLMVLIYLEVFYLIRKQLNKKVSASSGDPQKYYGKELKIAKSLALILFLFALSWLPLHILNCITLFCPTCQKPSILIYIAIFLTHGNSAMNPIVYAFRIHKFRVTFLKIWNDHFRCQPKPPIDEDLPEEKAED
Method: Varying concentrations of test compounds were incubated with the appropriate radioligand and membrane source for 1 hr at room temperature.
Assays were terminated by filtration over Whatman GF/B filters that had been pre-soaked with 0.1% polyethyleneimine using a 24 port Brandell cell havester. The filters were washed three times with 3 ml of ice cold buffer and transfered to plastic scintillation vials to which 4 ml of Beckman Ready protein scintillation cocktail was added. The tubes were shaken and counted in a Beckman 3801 scintillation counter that converted cpm to dpm.
Data were analyzed by utilizing the Ligand, commercial computer program (Munson and Rodbard, 1980).
Male Sprague Dawley rats were killed by decapitation and the brains removed. The cerebral cortices were homogenized in 50 mm Tris; 2mm MgCl2 (pH 7.4), and centrifuged at 40,000×g for 10 minutes. […] The homogenate was centrifuged, washed once, resuspended to a protein concentration of 5-10 mg/ml and frozen at -70° C. until use.

A2 receptors [2] = target: T2, A2 receptors (Homo sapiens, UniProt P29274); experiment: antagonism of NECA-stimulated adenylate cyclase in human platelet membranes (A); format: biochemical
T2 construct: Human Platelet Membranes; from tissue; host or cells: human platelets (membranes)

A2 receptors [3] = target: T3, A2 receptors (Rattus norvegicus, UniProt P30543); experiment: antagonism of NECA-stimulated adenylate cyclase in rat PC12 membranes (B); format: biochemical
T3 construct: Rat PC12 Membranes; endogenous in cells; host or cells: PC12

A1 receptors [4] = target: T4, A1 receptors (Rattus norvegicus, UniProt P25099); experiment: prevention of R-PIA-induced inhibition of adenylate cyclase in rat fat cell membranes (C); format: biochemical; set-up: from tissue
T4 sequence (P25099 1-326): T1 sequence (P25099 1-326)
Method: (§1) For activity at A1 receptors, compounds were tested as inhibitors of the binding of N^6 -[…]-[3H]-Phenylisopropyladenosine in rat brain membranes and for their ability to prevent R-PIA-induced inhibition of adenylate cyclase in rat fat cell membranes.
(C) Rat Fat Cell Membranes

A1 receptors [5] = target: T4, A1 receptors; experiment: inhibition of binding of [3H]-phenylisopropyladenosine in rat brain membranes (D); set-up: Rat Brain Membranes; from tissue; host or cells: rat brain (membranes)
Method: as §1
(D) Rat Brain Membranes

[6] = (A) Human Platelet Membranes, A2 Effects
[7] = (B) Rat PC12 Membranes, A2 Effects
[8] = (C) Rat Fat Cell Membranes, A1 Effects, read-out: KB vs PIA INHIBITION (Adenylate Cyclase)
[9] = (D) Rat Brain Membranes, A1 Effects, read-out: Ki vs [^3 H] PI (Binding)

T2 sequence (P29274 whole entry): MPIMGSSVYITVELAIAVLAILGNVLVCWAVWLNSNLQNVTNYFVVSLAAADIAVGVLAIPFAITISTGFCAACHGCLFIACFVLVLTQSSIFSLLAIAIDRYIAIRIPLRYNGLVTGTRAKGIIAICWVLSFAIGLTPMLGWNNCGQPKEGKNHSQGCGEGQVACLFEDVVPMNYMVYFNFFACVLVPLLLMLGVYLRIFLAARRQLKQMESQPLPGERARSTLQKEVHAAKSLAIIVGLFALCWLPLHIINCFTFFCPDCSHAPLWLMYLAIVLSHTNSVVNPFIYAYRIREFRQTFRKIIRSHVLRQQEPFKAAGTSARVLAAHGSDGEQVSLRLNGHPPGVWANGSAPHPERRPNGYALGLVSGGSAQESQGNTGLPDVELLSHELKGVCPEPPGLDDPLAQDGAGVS
T3 sequence (P30543 whole entry): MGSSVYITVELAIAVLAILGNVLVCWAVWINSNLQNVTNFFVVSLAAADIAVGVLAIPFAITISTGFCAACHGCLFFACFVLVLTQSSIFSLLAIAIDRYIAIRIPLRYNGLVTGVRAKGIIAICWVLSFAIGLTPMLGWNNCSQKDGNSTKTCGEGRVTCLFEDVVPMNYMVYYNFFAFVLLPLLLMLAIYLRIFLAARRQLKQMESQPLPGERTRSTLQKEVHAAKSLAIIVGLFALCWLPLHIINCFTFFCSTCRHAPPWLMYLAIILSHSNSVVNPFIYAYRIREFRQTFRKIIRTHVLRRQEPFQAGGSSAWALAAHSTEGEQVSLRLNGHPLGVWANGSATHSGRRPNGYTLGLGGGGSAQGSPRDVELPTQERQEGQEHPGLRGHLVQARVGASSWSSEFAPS

Work on `CN(C)CCNc1ncnc2c1ncn2C` [compound 0983, N^6-(2,2-N-dimethylethyl)-9-MA] yielded a Ki [1] of over 10 µM.

With `Cn1cnc2c(NC3CCCCC3)ncnc21` [N^6 -Cyclohexyl-9-MA] the Kb (A2 receptors [2]; [6]) was 7.4 µM, the Kb (A2 receptors [3]; [7]) was 21 µM and the Kb (A1 receptors [4]; [8]) was 0.65 µM.

`C[C@H](Nc1ncnc2c1ncn2C)c1ccccc1` [compound 0985, N^6 -S-1-phenyl-1-ethyl-9-MA] was tested, and the Ki [1] was over 100 µM.

In the case of `Cn1c(N)nc2c(N[C@H]3C[C@H]4CC[C@@H]3C4)ncnc21` (relative stereo) [compound 1005, N^6-(endo-2-norbornyl)-8-amino-9-MA], the Ki [1] is reported as 0.87 µM.

`Cn1cnc2c(Nc3cccs3)ncnc21` [compound 0987, N6 2-thienyl-9-MA] showed a Ki [1] of over 100 µM.

`Cn1cnc2c(N)ncnc21` [9-Methyladenine (9-MA), 9-Methyladenine, reference compound] showed a Kb (A2 receptors [3]) of 24 µM, a Ki (A1 receptors [5]) of 106 µM and a Kb (A1 receptors [4]) of 112 µM.

With `Cn1c(C2CCCC2)nc2c(N[C@H]3C[C@H]4CC[C@@H]3C4)ncnc21` (relative stereo) [compound 0964, N^6-(endo-2-norbornyl)-8-cyclopentyl-9-MA] the Ki [1] was 0.24 µM.

Work on `Cn1cnc2c(NCc3ccccc3)ncnc21` [N^6-2-Benzyl-9-MA, N^6 -Benzyl-9-MA] yielded a Kb (A2 receptors [2]; [6]) of 57 µM, a Kb (A2 receptors [3]; [7]) of 100 µM and a Ki (A1 receptors [5]; [9]) of 17 µM. It also gave a Kb (A1 receptors [4]; [8]) of 49 µM.

In the case of `CNc1ncnc2c1ncn2C` [N^6 -Methyl-9-MA], the Kb (A2 receptors [2]) is reported as 150 µM, the Kb (A2 receptors [3]) is reported as 130 µM and the Ki (A1 receptors [5]) is reported as over 100 µM. The Kb (A1 receptors [4]) was 220 µM.

`CCCC(Nc1ncnc2c1ncn2C)C(=O)O` (stereo not drawn) [compound 1004, N^6-1-carboxy-1-butyl-9-MA] was tested, and the Ki [1] was over 100 µM.

In the case of `C[C@@H](Nc1ncnc2c1ncn2C)c1ccccc1` [compound 0984, N^6 -R-1-phenyl-1-ethyl-9-MA], the Ki [1] is reported as over 10 µM.

Compound `Cn1c(Cl)nc2c(N[C@H]3C[C@H]4CC[C@@H]3C4)ncnc21` (relative stereo) [compound 1061, N^6-(endo-2-norbornyl)-8-chloro-9-MA] has a Ki [1] of 0.015 µM.

`Cn1c(S(=O)(=O)O)nc2c(N[C@H]3C[C@H]4CC[C@@H]3C4)ncnc21` (relative stereo) [compound 1062, N^6-(endo-2-norbornyl)-8-sulfonate-9-MA sodium salt] was tested, and the Ki [1] was over 100 µM.

Work on `Cn1cnc2c(N[C@H]3C[C@H]4CC[C@@H]3C4)nc(O)nc21` (relative stereo) [compound 1063, N^6-(Endo-2-norbornyl)-2-oxo-9-MA] yielded a Ki [1] of 1.12 µM.

For `Cn1c(NC2CCCC2)nc2c(N[C@H]3C[C@H]4CC[C@@H]3C4)ncnc21` (relative stereo) [compound 1064, N^6-(endo-2-norbornyl)-8-cyclopentylamine-9-MA], the Ki [1] was 1.9 µM.

With `Cn1cnc2c(NCCc3c[nH]c4ccccc34)ncnc21` [compound 0989, N^6-2-(3-ethylindole)-9-MA] the Ki [1] was over 10 µM.

`Cn1cnc2c(Nc3ccccc3)ncnc21` [N^6 Phenyl-9-MA, N^6 -Phenyl-9-MA] showed a Kb (A2 receptors [2]; [6]) of 21 µM, a Kb (A2 receptors [3]; [7]) of 107 µM and a Ki (A1 receptors [5]; [9]) of 25 µM. It also gave a Kb (A1 receptors [4]; [8]) of 10 µM.

Compound `Cn1cnc2c(NC3CCC3)ncnc21` [N^6-cyclobutyl-0-MA, N^6 -Cyclobutyl-9-Methyl Adenine] has a Kb (A2 receptors [2]; [6]) of 5.5 µM, a Kb (A2 receptors [3]; [7]) of 23 µM and a Ki (A1 receptors [5]; [9]) of 1.2 µM. The Kb (A1 receptors [4]; [8]) was 0.89 µM.

In the case of `COc1cc(CCNc2ncnc3c2ncn3C)cc(OC)c1OC` [compound 1002, N^6-2-(3,4,5-Trimethoxyphenyl) ethyl-9-MA], the Kb (A2 receptors [2]; [6]) is reported as 23 µM, the Kb (A2 receptors [3]; [7]) is reported as 40 µM and the Ki (A1 receptors [5]; [9]) is reported as over 100 µM. The Kb (A1 receptors [4]; [8]) was 122 µM and the Ki [1] was over 10 µM.

Source: patent publication US5565566A (Discovery Therapeutics, Inc., priority 1995, dated 1996)
